The target in one assay is T1, α4β1 (Homo sapiens, UniProt P05556+P13612).
T1 construct: Ramos cells, (50 μL at 2×10^6/mL) labeled with 5 μM Calcein AM; endogenous in cells; host or cells: Ramos cells
The assay is described as follows: Ramos Cell Adhesion Assay (α4β1 Mediated Adhesion/VCAM-1). The following applies: Ramos cells adhering to recombinant hVCAM-1. The format is cell-based. The method, then: Ramos Cell Adhesion Assay (α4β1 Mediated Adhesion/VCAM-1)
Immulon 96 well plates (Dynex) were coated with 100 μL recombinant hVCAM-1 at 4.0 μg/mL in 0.05 M NaCO3 buffer pH 9.0 overnight at 4° C. (R&D Systems). Plates were washed 2 times in PBS with 1% BSA and blocked for 1 h@room temperature in this buffer. PBS was removed and compounds to be tested (50 μL) were added at 2× concentration. Ramos cells, (50 μL at 2×10^6/mL) labeled with 5 μM Calcein AM (Molecular Probes) for 1 h at 37° C., were added to each well and allowed to adhere for 1 h at room temperature. Plates were washed 4 × in PBS+1% BSA and cells were lysed for 15 minutes in 100 μL of 1 M Tris pH 8.0 with 1% SDS. The plate was read at 485 nm excitation and 530 nm emission.

For the next assay, the target named is T2, human α4β7 integrin (Homo sapiens, UniProt P13612+P26010).
T2 construct: expressed in transfected cells; host or cells: K562 cells, stably transfected
T2 sequence (P13612 34-1032): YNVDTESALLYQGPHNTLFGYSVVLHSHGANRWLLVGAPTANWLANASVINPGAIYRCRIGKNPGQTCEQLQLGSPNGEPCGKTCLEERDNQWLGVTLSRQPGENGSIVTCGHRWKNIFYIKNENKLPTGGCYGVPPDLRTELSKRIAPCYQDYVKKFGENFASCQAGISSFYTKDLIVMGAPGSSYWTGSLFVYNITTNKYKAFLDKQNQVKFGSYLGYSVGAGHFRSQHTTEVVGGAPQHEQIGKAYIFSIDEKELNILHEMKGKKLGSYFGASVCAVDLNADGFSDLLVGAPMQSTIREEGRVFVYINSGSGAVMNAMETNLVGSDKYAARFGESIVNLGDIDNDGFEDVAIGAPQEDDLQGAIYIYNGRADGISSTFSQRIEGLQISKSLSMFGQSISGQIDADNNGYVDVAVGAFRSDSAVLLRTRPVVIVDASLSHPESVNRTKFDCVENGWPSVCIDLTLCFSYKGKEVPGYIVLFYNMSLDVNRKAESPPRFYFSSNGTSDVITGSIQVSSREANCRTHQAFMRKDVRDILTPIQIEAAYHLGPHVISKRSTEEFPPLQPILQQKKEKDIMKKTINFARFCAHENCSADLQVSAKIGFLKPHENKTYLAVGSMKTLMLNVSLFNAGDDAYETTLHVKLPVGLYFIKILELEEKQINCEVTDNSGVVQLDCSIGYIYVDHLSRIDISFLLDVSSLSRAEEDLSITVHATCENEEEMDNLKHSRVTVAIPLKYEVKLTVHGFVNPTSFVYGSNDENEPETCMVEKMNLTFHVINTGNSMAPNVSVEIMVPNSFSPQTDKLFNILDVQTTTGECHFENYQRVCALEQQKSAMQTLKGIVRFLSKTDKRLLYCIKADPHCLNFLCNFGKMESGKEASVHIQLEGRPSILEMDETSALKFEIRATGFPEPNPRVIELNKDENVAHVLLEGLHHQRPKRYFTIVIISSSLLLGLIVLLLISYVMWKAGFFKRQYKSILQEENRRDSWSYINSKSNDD
T2 sequence (P26010 20-798): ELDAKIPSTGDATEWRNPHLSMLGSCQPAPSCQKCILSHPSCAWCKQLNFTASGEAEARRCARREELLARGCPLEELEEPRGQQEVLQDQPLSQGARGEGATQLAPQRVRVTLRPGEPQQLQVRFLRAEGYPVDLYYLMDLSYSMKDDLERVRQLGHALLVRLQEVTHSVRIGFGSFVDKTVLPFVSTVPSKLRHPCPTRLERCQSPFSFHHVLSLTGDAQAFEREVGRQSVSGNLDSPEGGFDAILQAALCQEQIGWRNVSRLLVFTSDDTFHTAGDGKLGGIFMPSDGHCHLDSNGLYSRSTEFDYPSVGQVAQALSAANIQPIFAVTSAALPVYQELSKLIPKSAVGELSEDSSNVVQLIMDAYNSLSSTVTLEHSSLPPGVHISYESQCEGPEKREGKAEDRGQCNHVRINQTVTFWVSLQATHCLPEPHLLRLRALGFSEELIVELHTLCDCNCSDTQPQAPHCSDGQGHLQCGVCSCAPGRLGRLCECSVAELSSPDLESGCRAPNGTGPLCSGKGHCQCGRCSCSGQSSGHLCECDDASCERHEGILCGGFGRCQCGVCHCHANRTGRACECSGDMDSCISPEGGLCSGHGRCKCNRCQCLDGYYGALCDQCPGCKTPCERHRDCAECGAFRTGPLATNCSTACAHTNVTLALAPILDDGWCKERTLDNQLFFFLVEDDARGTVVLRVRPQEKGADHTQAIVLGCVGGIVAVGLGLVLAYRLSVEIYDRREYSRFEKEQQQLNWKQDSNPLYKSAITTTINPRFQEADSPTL
The assay is described as follows: α4β7-K562 Cell Adhesion Assay (α4β7 Mediated Adhesion/MAdCAM-1). The format is cell-based. To be noted: K562 cells expressing human α4β7 adhering to FLAG-hMAdCAM-1, 1 mM Mn2+. As for the experimental part:
α4β7-K562 Cell Adhesion Assay (α4β7 Mediated Adhesion/MAdCAM-1)
M2 anti-FLAG Antibody Coated 96-well plates (Sigma) were coated for 1 hour at 4° C. with 2-8 μL/well recombinant FLAG-hMAdCAM-1 contained in 100 μL of Dulbecco's PBS, pH 7.4, with 1% BSA and 1 mM Mn^2+ (PBS-BSA-Mn). Plates were washed once with PBS-BSA-Mn. Buffer was removed and compounds to be tested (50 μL) were added at 2× concentration. Stably transfected K562 cells expressing human α4β7 integrin, (50 μL at 2×10^6/mL) that had been labeled with 100 μg/mL carboxymethyl fluorescein diacetate succinimidyl ester (CFDA-SE; Molecular Probes) for 15 min at 37° C. were added to each well and allowed to adhere for 1 h at room temperature. Plates were washed 4× in PBS-BSA-Mn and then cells were lysed for 2 min by addtion of 100 μL of PBS without Ca^2+, Mg^2+ supplemented with 0.1 M NaOH. The plate was read on a 96-well fluorescent plate reader at 485 nm excitation and 530 nm emission.

Bounds are passed on as bounds.

In US20050209232A1, “Pyridazinone ureas as antagonists of alpha4 integrins” (priority 2004, published 2005) one finds IC50 data, which are given here for 30 compounds.

What is called IC50 is the concentration that gives 50% inhibition.

T1 sequence (P05556 21-798, one chain of several): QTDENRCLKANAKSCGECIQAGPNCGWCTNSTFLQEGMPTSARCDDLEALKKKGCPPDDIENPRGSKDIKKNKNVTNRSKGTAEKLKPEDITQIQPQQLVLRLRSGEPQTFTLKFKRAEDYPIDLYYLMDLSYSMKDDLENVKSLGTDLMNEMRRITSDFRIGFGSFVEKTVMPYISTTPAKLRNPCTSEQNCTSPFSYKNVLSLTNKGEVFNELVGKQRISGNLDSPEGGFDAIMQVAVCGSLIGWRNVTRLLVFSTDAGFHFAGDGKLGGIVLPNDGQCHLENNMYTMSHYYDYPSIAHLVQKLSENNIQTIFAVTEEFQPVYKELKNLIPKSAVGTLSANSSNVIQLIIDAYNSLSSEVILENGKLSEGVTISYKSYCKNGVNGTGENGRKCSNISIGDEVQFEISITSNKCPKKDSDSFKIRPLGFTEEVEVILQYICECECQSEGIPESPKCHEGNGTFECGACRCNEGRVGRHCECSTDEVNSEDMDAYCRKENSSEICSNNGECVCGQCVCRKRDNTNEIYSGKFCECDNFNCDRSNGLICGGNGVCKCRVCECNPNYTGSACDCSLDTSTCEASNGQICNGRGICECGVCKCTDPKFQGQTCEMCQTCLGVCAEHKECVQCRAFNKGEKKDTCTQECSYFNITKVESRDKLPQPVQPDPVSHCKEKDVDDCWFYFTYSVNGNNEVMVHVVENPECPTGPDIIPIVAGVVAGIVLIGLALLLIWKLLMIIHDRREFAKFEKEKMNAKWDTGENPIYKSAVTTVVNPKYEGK

Regarding `COc1cnn(C)c(=O)c1-c1ccc(C[C@H](NC(=O)N2CCC(O)C2)C(=O)O)cc1` (mixture of isomers) [Cpd 6], the IC50 at α4β1 was > 5 µM; against human α4β7 integrin it was 0.38 µM.
Take `COc1cnn(C)c(=O)c1-c1ccc(C[C@H](NC(=O)N2CCCCC2C)C(=O)O)cc1` (mixture of isomers) [Cpd 28]: the IC50 at α4β1 worked out at 1.8 µM; at human α4β7 integrin, 0.029 µM.
With `COc1cnn(C)c(=O)c1-c1ccc(C[C@H](NC(=O)N(Cc2cccnc2)C2CN3CCC2CC3)C(=O)O)cc1` (mixture of isomers) [Cpd 40], the IC50 is > 5 µM on α4β1 and 1.01 µM on human α4β7 integrin.
The like results for `COc1cnn(C)c(=O)c1-c1ccc(C[C@H](NC(=O)N2c3ccccc3CC2C)C(=O)O)cc1` (mixture of isomers) [Cpd 49] were, in that order, > 5 µM and 0.39 µM.
On to `COc1cnn(C)c(=O)c1-c1ccc(C[C@H](NC(=O)N2c3ccc(F)cc3CCC2C)C(=O)O)cc1` (mixture of isomers) [Cpd 53], for which the IC50 on α4β1 is > 5 µM; on human α4β7 integrin, 0.128 µM.
Turning to `COc1cnn(C)c(=O)c1-c1ccc(C[C@H](NC(=O)N(C(C)C)C(C)C)C(=O)O)cc1` [Cpd 1, 2-(3,3-Diisopropyl-ureido)-3-[4-(5-methoxy-2-methyl-3-oxo-2,3-dihydro-pyridazin-4-yl)-phenyl]-propionic acid], the IC50 was > 1 µM at α4β1 and 0.124 µM at human α4β7 integrin.
The like results for `COc1cnn(CCO)c(=O)c1-c1ccc(C[C@H](NC(=O)Nc2c(Cl)cccc2Cl)C(=O)O)cc1` [Cpd 2] were, in that order, 2.87 µM and 0.028 µM.
With `COc1cnn(CCO)c(=O)c1-c1ccc(C[C@H](NC(=O)NC2CCCCC2)C(=O)O)cc1` [Cpd 3], the IC50 is > 5 µM on α4β1 and 0.311 µM against human α4β7 integrin.
In the case of `COc1cnn(CCO)c(=O)c1-c1ccc(C[C@H](NC(=O)Nc2ccccc2F)C(=O)O)cc1` [Cpd 4], the values for the IC50 at α4β1 and on human α4β7 integrin were > 5 µM and 2.78 µM, respectively.
Turning to `COc1cnn(C)c(=O)c1-c1ccc(C[C@H](NC(=O)N2CCN(C)CC2)C(=O)O)cc1` [Cpd 5], the IC50 at α4β1 was > 5 µM; against human α4β7 integrin, 0.469 µM.
In the same order, the values of `COc1cnn(C)c(=O)c1-c1ccc(C[C@H](NC(=O)NCCO)C(=O)O)cc1` [Cpd 7] are > 5 µM and 0.789 µM.
For `COc1cnn(C)c(=O)c1-c1ccc(CC(NC(=O)N2CCCC2CO)C(=O)O)cc1` (stereo not drawn) [Cpd 8, 2-[(2-Hydroxymethyl-pyrrolidine-1-carbonyl)-amino]-3-[4-(5-methoxy-2-methyl-3-oxo-2,3-dihydro-pyridazin-4-yl)-phenyl]-propionic acid], the IC50 on α4β1 is > 5 µM; against human α4β7 integrin it was 0.341 µM.
In the same order, the values of `COc1cnn(C)c(=O)c1-c1ccc(C[C@H](NC(=O)NCc2ccccc2)C(=O)O)cc1` [Cpd 9] are > 5 µM and 0.37 µM.
As to `COc1cnn(C)c(=O)c1-c1ccc(C[C@H](NC(=O)N(C)c2ccccc2)C(=O)O)cc1` [Cpd 10], the results for the IC50 on α4β1 and against human α4β7 integrin were > 5 µM and 0.063 µM, respectively.
The like results for `COc1cnn(C)c(=O)c1-c1ccc(C[C@H](NC(=O)N(C)C2CCCCC2)C(=O)O)cc1` [Cpd 11] were, in that order, > 5 µM and 0.053 µM.
Turning to `COc1cnn(C)c(=O)c1-c1ccc(C[C@H](NC(=O)N(C)Cc2ccccc2)C(=O)O)cc1` [Cpd 12], the IC50 at α4β1 is > 5 µM; on human α4β7 integrin, 0.601 µM.
On to `COc1cnn(C)c(=O)c1-c1ccc(C[C@H](NC(=O)N(C)CCO)C(=O)O)cc1` [Cpd 14], for which the IC50 at α4β1 was > 5 µM; on human α4β7 integrin it was 0.094 µM.
As to `COc1cnn(C)c(=O)c1-c1ccc(C[C@H](NC(=O)N(CCO)Cc2ccccc2)C(=O)O)cc1` [Cpd 15], the figures for the 50% inhibitory concentration (IC50) at α4β1 and against human α4β7 integrin were > 5 µM and 0.31 µM, respectively.
In the case of `COc1cnn(C)c(=O)c1-c1ccc(C[C@H](NC(=O)N(CCO)c2ccccc2)C(=O)O)cc1` [Cpd 16], the IC50 is > 5 µM at α4β1 and 0.069 µM against human α4β7 integrin.
For `COc1cnn(C)c(=O)c1-c1ccc(C[C@H](NC(=O)N(CCO)C2CCCCC2)C(=O)O)cc1` [Cpd 17], the IC50 was > 5 µM at α4β1 and 0.282 µM against human α4β7 integrin.
With `COc1cnn(C)c(=O)c1-c1ccc(C[C@H](NC(=O)N(Cc2ccccc2)CC(C)C)C(=O)O)cc1` [Cpd 18], the figures for the IC50 at α4β1 and against human α4β7 integrin were 2.65 µM and 0.395 µM, respectively.
With `COc1cnn(C)c(=O)c1-c1ccc(C[C@H](NC(=O)N(C)C)C(=O)O)cc1` [Cpd 19], half-maximal inhibition against human α4β7 integrin (IC50) required 1.55 µM.
With `COc1cnn(C)c(=O)c1-c1ccc(C[C@H](NC(=O)NC2CCCCC2)C(=O)O)cc1` [Cpd 20], the midpoint of inhibition against human α4β7 integrin, the IC50, lay at 0.497 µM.
Regarding `COc1cnn(C)c(=O)c1-c1ccc(C[C@H](NC(=O)N(C2CC2)C2CCN(C)CC2)C(=O)O)cc1` [Cpd 22], the IC50 on α4β1 is > 5 µM; at human α4β7 integrin, 0.135 µM.
Regarding `COc1cnn(C)c(=O)c1-c1ccc(C[C@H](NC(=O)N[C@H]2CC3CCC2C3)C(=O)O)cc1` (stereo partly drawn) [Cpd 23], the IC50 at α4β1 is > 5 µM; against human α4β7 integrin, 0.183 µM.
Consider `COc1cnn(C)c(=O)c1-c1ccc(C[C@H](NC(=O)N2CCN(c3ncc(C(F)(F)F)cc3Cl)CC2)C(=O)O)cc1` [Cpd 24], for which the IC50 on α4β1 was > 5 µM; on human α4β7 integrin, 0.391 µM.
The like results for `COc1cnn(C)c(=O)c1-c1ccc(C[C@H](NC(=O)N2CCN(C3C4CC5CC(C4)CC3C5)CC2)C(=O)O)cc1` (stereo partly drawn) [Cpd 25] were, in that order, > 5 µM and 2.02 µM.
In the same order, the values of `COc1cnn(C)c(=O)c1-c1ccc(C[C@H](NC(=O)N(O)C2CCCCC2)C(=O)O)cc1` [Cpd 26] are > 5 µM and 0.598 µM.
For `COc1cnn(C)c(=O)c1-c1ccc(C[C@H](NC(=O)N(Cc2ccccc2)C(C)C)C(=O)O)cc1` [Cpd 27], the figures for the IC50 on α4β1 and on human α4β7 integrin were > 5 µM and 0.218 µM, respectively.
Compound `CCCN(C(=O)N[C@@H](Cc1ccc(-c2c(OC)cnn(C)c2=O)cc1)C(=O)O)c1ccccc1` [Cpd 50] came in with an IC50 on human α4β7 integrin of 0.354 µM.
